From article PMC3821043 (Biochemical pharmacology, 2012)
pIC50: −log10 of the molar value.

Biological target: T1, ABCG2 (breast cancer resistance protein) (Homo sapiens, UniProt Q9UNQ0)
T1 sequence (Q9UNQ0 1-655): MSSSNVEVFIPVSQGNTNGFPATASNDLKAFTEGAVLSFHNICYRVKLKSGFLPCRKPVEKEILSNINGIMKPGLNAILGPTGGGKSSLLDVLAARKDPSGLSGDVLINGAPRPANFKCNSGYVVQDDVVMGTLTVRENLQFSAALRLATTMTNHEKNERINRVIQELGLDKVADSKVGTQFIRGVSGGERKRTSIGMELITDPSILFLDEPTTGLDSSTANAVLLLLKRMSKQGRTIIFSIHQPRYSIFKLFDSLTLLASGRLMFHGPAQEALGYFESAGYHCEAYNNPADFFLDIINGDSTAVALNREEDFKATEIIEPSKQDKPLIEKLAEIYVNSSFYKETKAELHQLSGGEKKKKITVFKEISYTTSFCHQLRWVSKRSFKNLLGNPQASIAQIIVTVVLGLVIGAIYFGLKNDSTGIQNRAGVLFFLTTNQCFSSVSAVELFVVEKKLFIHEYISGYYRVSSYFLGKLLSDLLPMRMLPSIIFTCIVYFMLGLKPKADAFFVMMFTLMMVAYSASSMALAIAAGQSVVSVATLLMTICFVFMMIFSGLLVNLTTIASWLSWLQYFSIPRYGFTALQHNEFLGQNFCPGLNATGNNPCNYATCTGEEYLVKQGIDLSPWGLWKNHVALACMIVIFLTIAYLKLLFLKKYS
Experiment: competition of […]IAAP photoaffinity labeling
Type: binding

Q: How did the pIC50 turn out when CN1CCC(CNc2ccc3ncc(-c4cccc(OC(F)(F)F)c4)n3n2)CC1 [SGI-1776] was run?
A: The pIC50 was 7.05.
